Results: PubChem BioAssay AID328 (DTP/NCI, 2004)
Where “and” joins values, the source holds several entries; their conditions need not be identical. Identical values can stand only once. Toxic doses and inconclusive results are not listed.

System: BDF1 mice, P388 leukemia ip, median survival T/C
Test: NCI In Vivo Anticancer Drug Screen. Data for tumor model P388 Leukemia (intraperitoneal) in B6D2F1 (BDF1) mice
Conditions: endpoint: median survival time, higher = longer survival
How it was run: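 Each value expresses how treatment altered survival: treated-mouse outcome over vehicle-mouse outcome, both groups bearing the transplanted tumour.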

COC(=O)[C@@]12OC[C@]34[C@H]([C@@H](O)[C@@H]1O)[C@@]1(C)CC(=O)C(O)=C(C)[C@@H]1C[C@H]3OC(=O)[C@H](OC(=O)/C=C(\C)C(C)C)[C@@H]24
T/C (dose: 0.03 mg/kg/injection, schedule: Q01DX009 (ip), vehicle: saline + alcohol): 151 % of control | T/C (dose: 0.03 mg/kg/injection, schedule: Q01DX009 (ip), vehicle: saline): 155 % of control | T/C (dose: 0.05 mg/kg/injection, schedule: Q01DX005 (iv), vehicle: saline + alcohol): 100 % of control | T/C (dose: 0.05 mg/kg/injection, schedule: Q01DX009 (ip), vehicle: saline + alcohol): 150 % of control | T/C (dose: 0.06 mg/kg/injection, schedule: Q01DX009 (ip), vehicle: other): 153 % of control | T/C (dose: 0.06 mg/kg/injection, schedule: Q01DX009 (ip), vehicle: saline): 170 % of control | T/C (dose: 0.06 mg/kg/injection, schedule: Q01DX009 (sc), vehicle: saline + alcohol): 100 % of control | T/C (dose: 0.06 mg/kg/injection, schedule: Q03HX024 (ip), vehicle: other): 155 % of control | T/C (dose: 0.06 mg/kg/injection, schedule: Q03HX024 (ip), vehicle: saline + alcohol): 152 % of control and 153 % of control | T/C (dose: 0.1 mg/kg/injection, schedule: Q01DX005 (iv), vehicle: saline + alcohol): 100 % of control | T/C (dose: 0.1 mg/kg/injection, schedule: Q01DX009 (ip), vehicle: saline + alcohol): 158 % of control | T/C (dose: 0.12 mg/kg/injection, schedule: Q01DX009 (ip), vehicle: other): 177 % of control | T/C (dose: 0.12 mg/kg/injection, schedule: Q01DX009 (ip), vehicle: saline + alcohol): 158 % of control | T/C (dose: 0.12 mg/kg/injection, schedule: Q01DX009 (ip), vehicle: saline with Tween-80): 151 % of control | T/C (dose: 0.12 mg/kg/injection, schedule: Q01DX009 (ip), vehicle: saline): 180 % of control | T/C (dose: 0.12 mg/kg/injection, schedule: Q03HX024 (ip), vehicle: other): 166 % of control | T/C (dose: 0.12 mg/kg/injection, schedule: Q03HX024 (ip), vehicle: saline + alcohol): 157 % of control | T/C (dose: 0.12 mg/kg/injection, schedule: Q03HX024 (ip), vehicle: saline with Tween-80): 150 % of control | T/C (dose: 0.13 mg/kg/injection, schedule: Q01DX009 (ip), vehicle: saline + alcohol): 158 % of control and 164 % of control and 173 % of control | T/C (dose: 0.13 mg/kg/injection, schedule: Q01DX009 (ip), vehicle: saline with Tween-80): 161 % of control | T/C (dose: 0.13 mg/kg/injection, schedule: Q01DX009 (sc), vehicle: saline + alcohol): 108 % of control | T/C (dose: 0.13 mg/kg/injection, schedule: Q03HX016 (ip), vehicle: saline + alcohol): 152 % of control | T/C (dose: 0.13 mg/kg/injection, schedule: Q03HX024 (ip), vehicle: saline + alcohol): 159 % of control | T/C (dose: 0.2 mg/kg/injection, schedule: Q01DX005 (iv), vehicle: saline + alcohol): 100 % of control | T/C (dose: 0.2 mg/kg/injection, schedule: Q01DX009 (ip), vehicle: saline + alcohol): 173 % of control | T/C (dose: 0.25 mg/kg/injection, schedule: Q01DX009 (ip), vehicle: other): 171 % of control | T/C (dose: 0.25 mg/kg/injection, schedule: Q01DX009 (ip), vehicle: saline with Tween-80): 183 % of control | T/C (dose: 0.25 mg/kg/injection, schedule: Q01DX009 (sc), vehicle: saline + alcohol): 108 % of control | T/C (dose: 0.25 mg/kg/injection, schedule: Q03HX016 (ip), vehicle: saline + alcohol): 165 % of control | T/C (dose: 0.25 mg/kg/injection, schedule: Q03HX024 (ip), vehicle: saline with Tween-80): 169 % of control | T/C (dose: 0.25 mg/kg/injection, schedule: Q04DX003 (ip), vehicle: saline + alcohol): 122 % of control | T/C (dose: 0.25 mg/kg/injection, schedule: Q04DX003 (ip), vehicle: saline with Tween-80): 120 % of control | T/C (dose: 0.4 mg/kg/injection, schedule: Q01DX005 (iv), vehicle: saline + alcohol): 107 % of control | T/C (dose: 0.4 mg/kg/injection, schedule: Q01DX009 (ip), vehicle: saline + alcohol): 185 % of control | T/C (dose: 0.44 mg/kg/injection, schedule: Q01DX009 (ip), vehicle: saline with Tween-80): 186 % of control | T/C (dose: 0.5 mg/kg/injection, schedule: Q01DX009 (ip), vehicle: other): 177 % of control | T/C (dose: 0.5 mg/kg/injection, schedule: Q01DX009 (ip), vehicle: saline with Tween-80): 175 % of control | T/C (dose: 0.5 mg/kg/injection, schedule: Q01DX009 (ip), vehicle: saline): 150 % of control | T/C (dose: 0.5 mg/kg/injection, schedule: Q01DX009 (oral), vehicle: saline + alcohol): 101 % of control and 110 % of control | T/C (dose: 0.5 mg/kg/injection, schedule: Q01DX009 (sc), vehicle: saline + alcohol): 116 % of control | T/C (dose: 0.5 mg/kg/injection, schedule: Q04DX003 (ip), vehicle: saline + alcohol): 120 % of control | T/C (dose: 0.5 mg/kg/injection, schedule: Q04DX003 (ip), vehicle: saline with Tween-80): 117 % of control | T/C (dose: 0.5 mg/kg/injection, schedule: Q08DX002 (ip), vehicle: saline + alcohol): 109 % of control | T/C (dose: 0.5 mg/kg/injection, schedule: Q08DX002 (ip), vehicle: saline with Tween-80): 116 % of control | T/C (dose: 0.65 mg/kg/injection, schedule: Q04DX003 (ip), vehicle: saline + alcohol): 123 % of control | T/C (dose: 0.67 mg/kg/injection, schedule: Q01DX009 (ip), vehicle: saline with Tween-80): 169 % of control | T/C (dose: 0.8 mg/kg/injection, schedule: Q01DX005 (ip), vehicle: saline + alcohol): 164 % of control | T/C (dose: 0.8 mg/kg/injection, schedule: Q01DX005 (iv), vehicle: saline + alcohol): 106 % of control and 119 % of control | T/C (dose: 1.0 mg/kg/injection, schedule: Q01DX001 (ip), vehicle: saline + alcohol): 107 % of control | T/C (dose: 1.0 mg/kg/injection, schedule: Q01DX001 (ip), vehicle: saline with Tween-80): 112 % of control | T/C (dose: 1.0 mg/kg/injection, schedule: Q01DX001 (oral), vehicle: saline + alcohol): 100 % of control and 101 % of control | T/C (dose: 1.0 mg/kg/injection, schedule: Q01DX001 (sc), vehicle: saline + alcohol): 114 % of control | T/C (dose: 1.0 mg/kg/injection, schedule: Q01DX009 (ip), vehicle: saline): 166 % of control | T/C (dose: 1.0 mg/kg/injection, schedule: Q01DX009 (oral), vehicle: saline + alcohol): 105 % of control and 107 % of control | T/C (dose: 1.0 mg/kg/injection, schedule: Q04DX003 (ip), vehicle: saline + alcohol): 123 % of control | T/C (dose: 1.0 mg/kg/injection, schedule: Q04DX003 (ip), vehicle: saline with Tween-80): 123 % of control | T/C (dose: 1.0 mg/kg/injection, schedule: Q08DX002 (ip), vehicle: saline + alcohol): 115 % of control | T/C (dose: 1.0 mg/kg/injection, schedule: Q08DX002 (ip), vehicle: saline with Tween-80): 99 % of control | T/C (dose: 1.08 mg/kg/injection, schedule: Q04DX003 (ip), vehicle: saline + alcohol): 123 % of control | T/C (dose: 1.5 mg/kg/injection, schedule: Q01DX009 (ip), vehicle: saline with Tween-80): 186 % of control | T/C (dose: 1.6 mg/kg/injection, schedule: Q01DX005 (ip), vehicle: saline + alcohol): 182 % of control | T/C (dose: 1.8 mg/kg/injection, schedule: Q04DX003 (ip), vehicle: saline + alcohol): 110 % of control and 123 % of control | T/C (dose: 2.0 mg/kg/injection, schedule: Q01DX001 (ip), vehicle: saline + alcohol): 106 % of control | T/C (dose: 2.0 mg/kg/injection, schedule: Q01DX001 (ip), vehicle: saline with Tween-80): 112 % of control | T/C (dose: 2.0 mg/kg/injection, schedule: Q01DX001 (oral), vehicle: saline + alcohol): 99 % of control and 101 % of control | T/C (dose: 2.0 mg/kg/injection, schedule: Q01DX001 (sc), vehicle: saline + alcohol): 113 % of control | T/C (dose: 2.0 mg/kg/injection, schedule: Q01DX009 (ip), vehicle: saline with Tween-80): 97 % of control | T/C (dose: 2.0 mg/kg/injection, schedule: Q01DX009 (oral), vehicle: saline + alcohol): 96 % of control and 111 % of control | T/C (dose: 2.0 mg/kg/injection, schedule: Q01DX009 (sc), vehicle: saline + alcohol): 99 % of control | T/C (dose: 2.0 mg/kg/injection, schedule: Q08DX002 (ip), vehicle: saline + alcohol): 99 % of control | T/C (dose: 2.0 mg/kg/injection, schedule: Q08DX002 (ip), vehicle: saline with Tween-80): 91 % of control | T/C (dose: 3.2 mg/kg/injection, schedule: Q01DX005 (iv), vehicle: saline + alcohol): 110 % of control | T/C (dose: 4.0 mg/kg/injection, schedule: Q01DX001 (oral), vehicle: saline + alcohol): 101 % of control and 105 % of control | T/C (dose: 4.0 mg/kg/injection, schedule: Q01DX009 (oral), vehicle: saline + alcohol): 97 % of control and 115 % of control | T/C (dose: 8.0 mg/kg/injection, schedule: Q01DX001 (oral), vehicle: saline + alcohol): 98 % of control and 99 % of control | T/C (dose: 45.0 micrograms/kg/injection, schedule: Q01DX009 (ip), vehicle: saline + alcohol): 155 % of control | T/C (dose: 90.0 micrograms/kg/injection, schedule: Q01DX009 (ip), vehicle: saline + alcohol): 180 % of control | T/C (dose: 177.0 micrograms/kg/injection, schedule: Q01DX009 (ip), vehicle: saline + alcohol): 190 % of control | T/C (dose: 389.0 micrograms/kg/injection, schedule: Q01DX004 (ip), vehicle: saline + alcohol): 159 % of control | T/C (dose: 400.0 micrograms/kg/injection, schedule: Q01DX009 (ip), vehicle: saline + alcohol): 185 % of control | T/C (dose: 432.0 micrograms/kg/injection, schedule: Q01DX009 (ip), vehicle: saline + alcohol): 180 % of control and 181 % of control | T/C (dose: 720.0 micrograms/kg/injection, schedule: Q01DX009 (ip), vehicle: saline + alcohol): 182 % of control | T/C (dose: 1200.0 micrograms/kg/injection, schedule: Q01DX009 (ip), vehicle: saline + alcohol): 179 % of control | T/C (dose: 2000.0 micrograms/kg/injection, schedule: Q01DX009 (ip), vehicle: saline + alcohol): 189 % of control
